Here are results for six compounds from PubChem BioAssay (NCI).

Where “and” joins values, the source holds several entries; their conditions need not be identical. Identical values can stand only once.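 How tested: cells in 96-well plates exposed to compound for 48 hours at five concentrations. Abbreviation: GI50, concentration required for 50% inhibition of growth. TGI: concentration producing complete growth inhibition.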

Some test systems named below: OVCAR-3 ovarian; CCRF-CEM leukemia; OVCAR-5 ovarian; HCC-2998 colon; MDA-MB-435; HL-60(TB) leukemia; SK-MEL-2 melanoma; M14 melanoma; K-562 leukemia; SW-620 colon; NCI-H226 lung; LOX IMVI melanoma; NCI/ADR-RES ovarian; SF-268 CNS; NCI-H23 lung; HOP-92 NSCLC.
Test in all cases: NCI tumour cell line growth inhibition, 48 h

Take `O=S(=O)(O)c1cc(N=Nc2cc(S(=O)(=O)O)c3ccccc3c2O)ccc1/C=C/c1ccc(N=Nc2cc(S(=O)(=O)O)c3ccccc3c2O)cc1S(=O)(=O)O`: the TGI with OVCAR-3 ovarian was greater than 1000 µM; in the experiment with CCRF-CEM leukemia it was 42.5 µM and 92.7 µM; with OVCAR-5 ovarian, 472 µM; in the experiment with HCC-2998 colon it was greater than 1000 µM; with MDA-MB-435, 258 µM; with HL-60(TB) leukemia, 41.2 µM and 104 µM. Also, the TGI in the experiment with SK-MEL-2 melanoma is greater than 620 µM; in the experiment on M14 melanoma it was greater than 355 µM; with K-562 leukemia, > 67.1 µM and 78.1 µM; with SW-620 colon, greater than 1000 µM; in the experiment on NCI-H226 lung, 594 µM; with LOX IMVI melanoma it was greater than 461 µM. Moreover, the TGI in the experiment with NCI/ADR-RES ovarian is greater than 1000 µM; with SF-268 CNS, greater than 1000 µM; with NCI-H23 lung, 975 µM; in the experiment on HOP-92 NSCLC it was greater than 463 µM. The GI50 was 32.5 µM in the experiment on CCRF-CEM leukemia, greater than 1000 µM with HCC-2998 colon, 43.4 µM in the experiment with HL-60(TB) leukemia and greater than 262 µM in the experiment on HOP-92 NSCLC.

In the case of `O=C1N[C@H]2C(=O)c3c(Cl)sc(Cl)c3[C@H]2O1`, the TGI in the experiment with OVCAR-3 ovarian was 3.54 µM; in the experiment on CCRF-CEM leukemia, 10.9 µM; with OVCAR-5 ovarian, 37.7 µM; in the experiment on HCC-2998 colon it was 3.6 µM; with MDA-MB-435, 17.8 µM; in the experiment with HL-60(TB) leukemia, 4.91 µM. Also, the TGI in the experiment with SK-MEL-2 melanoma is 43.4 µM; in the experiment with M14 melanoma, 19.6 µM; in the experiment with K-562 leukemia, 5.09 µM; in the experiment with SW-620 colon it was 5.4 µM; in the experiment on NCI-H226 lung, greater than 100 µM; in the experiment with LOX IMVI melanoma it was 6.97 µM. Further, the TGI in the experiment on NCI/ADR-RES ovarian is greater than 71.5 µM; in the experiment with SF-268 CNS it was 22.4 µM; in the experiment on NCI-H23 lung, 22.5 µM; in the experiment on HOP-92 NSCLC, 26.4 µM.

As for `CS(=O)(=O)N1CC(CCl)c2ccc(NCCN)cc21` (stereo not given), the TGI in the experiment on OVCAR-3 ovarian, in the experiment with CCRF-CEM leukemia, in the experiment with OVCAR-5 ovarian, in the experiment on HCC-2998 colon, in the experiment on MDA-MB-435 and in the experiment with HL-60(TB) leukemia was greater than 100 µM throughout. Besides, the TGI with SK-MEL-2 melanoma, in the experiment on M14 melanoma, in the experiment with K-562 leukemia, with SW-620 colon, in the experiment with NCI-H226 lung and with LOX IMVI melanoma was greater than 100 µM throughout. In addition, the TGI in the experiment with NCI/ADR-RES ovarian is greater than 100 µM; with SF-268 CNS, greater than 100 µM; in the experiment on NCI-H23 lung it was greater than 100 µM; with HOP-92 NSCLC it was 74.6 µM.

On to `N#CC(c1ccccc1)N(CCc1ccccc1)C(=O)c1ccccc1` (stereo not given), for which the TGI in the experiment on OVCAR-3 ovarian, in the experiment with CCRF-CEM leukemia, in the experiment with OVCAR-5 ovarian, in the experiment on HCC-2998 colon, in the experiment on MDA-MB-435 and with HL-60(TB) leukemia was greater than 100 µM throughout. Moreover, the TGI in the experiment with SK-MEL-2 melanoma, in the experiment with M14 melanoma, with K-562 leukemia, with SW-620 colon, in the experiment with NCI-H226 lung and in the experiment on LOX IMVI melanoma was greater than 100 µM each time. The TGI in the experiment on NCI/ADR-RES ovarian was greater than 100 µM; with SF-268 CNS it was greater than 86.5 µM; in the experiment with NCI-H23 lung, greater than 100 µM; in the experiment on HOP-92 NSCLC, 59.7 µM.

Turning to `CC(=O)Nc1ccc(-c2nc3ccccc3s2)cc1Cl`, the TGI with OVCAR-3 ovarian, in the experiment with CCRF-CEM leukemia, in the experiment on OVCAR-5 ovarian, with HCC-2998 colon, with MDA-MB-435 and in the experiment on HL-60(TB) leukemia was greater than 100 µM in each case. Moreover, the TGI in the experiment with SK-MEL-2 melanoma, with M14 melanoma, in the experiment with K-562 leukemia, in the experiment with SW-620 colon, with NCI-H226 lung and in the experiment with LOX IMVI melanoma was greater than 100 µM each time. Besides, the TGI in the experiment on NCI/ADR-RES ovarian, with SF-268 CNS, in the experiment with NCI-H23 lung and with HOP-92 NSCLC was greater than 100 µM each time.

For the compound `CC(O)CCNC(=O)Nc1c(C(F)(F)F)cc(-c2ccccc2)[nH]c1=O` (stereo not given), the TGI with OVCAR-3 ovarian, in the experiment with CCRF-CEM leukemia, in the experiment on OVCAR-5 ovarian, in the experiment on HCC-2998 colon, in the experiment with MDA-MB-435 and with HL-60(TB) leukemia was greater than 100 µM each time. Besides, the TGI with SK-MEL-2 melanoma, in the experiment with M14 melanoma, with K-562 leukemia, with SW-620 colon, with NCI-H226 lung and in the experiment with LOX IMVI melanoma was greater than 100 µM throughout. Moreover, the TGI with NCI/ADR-RES ovarian, with SF-268 CNS, in the experiment with NCI-H23 lung and in the experiment with HOP-92 NSCLC was greater than 100 µM in each case.
